Experimental data: the supplement of paper PMC11424490

Columns and labels:
[1] = test system: SW837; test: combination cScore with adagrasib (Bliss gap around IC50) (%PoC); higher = stronger additive effect
Method: (§1)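 Combination screen of 179 inhibitors with the KRAS G12C inhibitor adagrasib (MRTX849) in dose matrices, CellTiter-Glo readout in NCI-H2122 (72 h), SW837 (144 h) and NCI-H358 cells. The cScore is the mean Bliss-independence gap (expected minus observed viability, in %PoC) over a 3x3 field around the IC50s of both drugs. Positive means additive, and >~10 is stated as clear additive.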

[2] = test system: NCI-H2122; test: as above
Method: as §1

[3] = test system: NCI-H2122; test: combination cScore with sotorasib (Bliss gap around IC50) (%PoC); higher = stronger additive effect
Method: as §1, with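 “sotorasib (AMG510)” for “adagrasib (MRTX849)”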

[4] = test system: SW837; test: fitted bottom plateau of viability curve, % of DMSO control; higher = less maximal inhibition; extreme values may be limits of the assay
Method: (§2)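 CellTiter-Glo proliferation assay in KRAS G12C mutant NCI-H2122 (72 h), SW837 (144 h) and NCI-H358 cells in 384-well plates. Monotherapy dose response was fitted with a four-parameter curve after normalisation to DMSO controls (% of control, PoC). IC50 is the relative IC50, averaged over replicates. Bottom is the fitted lower plateau in %PoC; Max.Conc. is the top dose tested.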

[5] = test system: NCI-H2122; test: as above
Method: as §2

| Structure (SMILES) | combination cScore with adagrasib [1] | combination cScore with adagrasib [2] | combination cScore with sotorasib [3] | fitted bottom plateau of viability curve [4] | fitted bottom plateau of viability curve [5] |
| --- | --- | --- | --- | --- | --- |
| O=C(c1ccc(F)c(F)c1Nc1ccc(I)cc1F)N1CC(O)([C@@H]2CCCCN2)C1 [Cobimetinib] + C=C(F)C(=O)N1CCN(c2nc(OC[C@@H]3CCCN3C)nc3c2CCN(c2cccc4cccc(Cl)c24)C3)C[C@@H]1CC#N [adagrasib] | 13.2 | 2.78 | – | – | – |
| Cc1[nH]c2ccccc2c1CCNCc1ccc(/C=C/C(=O)NO)cc1 [Panobinostat] + C=CC(=O)N1CCN(c2nc(=O)n(-c3c(C)ccnc3C(C)C)c3nc(-c4c(O)cccc4F)c(F)cc23)[C@@H](C)C1 [sotorasib] | – | – | 0.52 | – | – |
| N[C@H]1CC[C@H](N[C@@H]2C[C@H]2c2ccccc2)CC1 [ORY-1001] + C=CC(=O)N1CCN(c2nc(=O)n(-c3c(C)ccnc3C(C)C)c3nc(-c4c(O)cccc4F)c(F)cc23)[C@@H](C)C1 [sotorasib] | – | – | 8.65 | – | – |
| On1ncc2cc(CCc3nn[nH]n3)ccc21 (top concentration tested 10000 nM) | – | – | – | 88.1% | 73.1% |
| Nc1cccc2c1CN(C1CCC(=O)NC1=O)C2=O (centres undefined) [Lenalidomide] (top concentration tested 10000 nM) | – | – | – | 89.9% | 84.3% |
| N.N.[Cl][Pt][Cl] [Cisplatin] (top concentration tested 10000 nM) | – | – | – | 88.2% | 75.2% |
| C[C@H](Cc1ccc(O)c(O)c1)[C@@H](C)Cc1ccc(O)c(O)c1 [Masoprocol] (top concentration tested 9999.8 nM) | – | – | – | 86.2% | 71.4% |
| CCCS(=O)(=O)Nc1ccc(F)c(C(=O)c2c[nH]c3ncc(Cl)cc23)c1F [PLX4720] + C=C(F)C(=O)N1CCN(c2nc(OC[C@@H]3CCCN3C)nc3c2CCN(c2cccc4cccc(Cl)c24)C3)C[C@@H]1CC#N [adagrasib] | -5.68 | – | – | – | – |
| CNC(=O)c1cc(Oc2ccc(NC(=O)Nc3ccc(Cl)c(C(F)(F)F)c3)c(F)c2)ccn1 [Regorafenib] (top concentration tested 999.95 nM) | – | – | – | 92.7% | 82.1% |
| CN1CCN(c2ccc(-c3cccc(CN4CCOCC4)c3)cc2NC(=O)c2c[nH]c(=O)cc2C(F)(F)F)CC1 [OICR-9429] (top concentration tested 10000 nM) | – | – | – | 95.4% | 62.6% |
| Cc1ccc(NC(=O)c2ccc(CN3CCN(C)CC3)cc2)cc1Nc1nccc(-c2cccnc2)n1 [Imatinib] (top concentration tested 1000 nM) | – | – | – | 95.9% | 71% |
| O=C(O)C1(C(=O)O)CCC1.[NH2-].[NH2-].[Pt+2] [Carboplatin] (top concentration tested 10000 nM) | – | – | – | 88.3% | 63.4% |
| CC(C)Nc1cc(-c2c[nH]c(C(=O)N[C@H](CO)c3cccc(Cl)c3)c2)c(Cl)cn1 [Ulixertinib] (top concentration tested 99.921 nM) | – | – | – | 97.1% | 64.5% |
| CS(=O)(=O)c1ccc(C(=O)Nc2ccc(Cl)c(-c3ccccn3)c2)c(Cl)c1 [Vismodegib] (top concentration tested 10000 nM) | – | – | – | 103% | 91.1% |
| CCCC(CCC)C(=O)O [Valproic acid] (top concentration tested 10000 nM) | – | – | – | 92.8% | 72.1% |
| Cc1cc(Nc2nc(N[C@@H](C)c3ncc(F)cn3)ncc2Cl)[nH]n1 [AZD-1480] (top concentration tested 10000 nM) | – | – | – | 87.9% | 67% |
